We go through four molecules from patent US20110039779A1, “IGF-1R BINDING PROTEINS AND ANTAGONISTS” (priority 2007, published 2011).

Values joined by “and” are separate entries in the source; they are usually repeats but may differ in a detail not shown here. Equal values may be shown once. Read-outs that look alike come from different tables or passages of the source. Where a SMILES comes first, the peptide text is derived from it. Where only a bound is given, the exact number is not on record here.

Assay [1] concerns the target T1, MCF7 cells (Homo sapiens, UniProt P08069). Put plainly: antagonism assay in starved MCF7 cells, luminescence viability, 72 hrs. Conditions: read-out: Cell; Table 11. The assay is classed as cell-based. The protocol: Additional binding and antagonism assays using candidate peptides were performed. […] Cell viability was determined by luminescence assay and IC50 was calculated using standard techniques.

Assay [2] deals with T2, His-tagged soluble recombinant human IGF-IR (srhIGF-1R-his) (Homo sapiens, UniProt P08069).
T2 construct: The extra-cellular domain of IGF-1R was obtained as a recombinant protein from R&D Systems; purchased R&D Systems, Inc., Minneapolis, Minn
T2 sequence (P08069 31-736 limits assumed): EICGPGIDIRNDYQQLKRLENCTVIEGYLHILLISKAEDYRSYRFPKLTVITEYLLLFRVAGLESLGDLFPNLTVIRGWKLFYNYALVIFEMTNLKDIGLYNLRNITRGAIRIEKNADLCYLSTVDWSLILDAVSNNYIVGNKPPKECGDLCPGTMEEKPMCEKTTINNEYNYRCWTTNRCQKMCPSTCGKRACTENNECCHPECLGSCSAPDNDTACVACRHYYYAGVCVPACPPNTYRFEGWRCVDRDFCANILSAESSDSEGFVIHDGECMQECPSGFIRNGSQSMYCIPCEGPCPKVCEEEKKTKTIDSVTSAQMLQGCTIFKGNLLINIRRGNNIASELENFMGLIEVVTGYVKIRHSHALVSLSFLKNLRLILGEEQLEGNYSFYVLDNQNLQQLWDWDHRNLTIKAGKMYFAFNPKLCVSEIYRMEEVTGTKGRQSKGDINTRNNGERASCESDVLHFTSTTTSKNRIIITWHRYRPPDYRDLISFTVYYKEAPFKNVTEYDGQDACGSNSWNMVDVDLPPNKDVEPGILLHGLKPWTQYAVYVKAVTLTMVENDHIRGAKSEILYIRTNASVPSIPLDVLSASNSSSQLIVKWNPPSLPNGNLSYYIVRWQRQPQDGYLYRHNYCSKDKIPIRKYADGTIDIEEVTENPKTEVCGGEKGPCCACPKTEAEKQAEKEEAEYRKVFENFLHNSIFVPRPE
T2 sequence (P08069 741-935 limits assumed): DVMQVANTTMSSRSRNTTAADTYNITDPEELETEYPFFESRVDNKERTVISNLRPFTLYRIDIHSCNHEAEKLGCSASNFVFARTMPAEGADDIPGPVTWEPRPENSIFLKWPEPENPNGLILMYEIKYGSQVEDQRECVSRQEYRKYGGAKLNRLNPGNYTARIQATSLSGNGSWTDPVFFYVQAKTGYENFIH
Nature of the assay: ALPHAScreen competition binding assay, biotinylated hIGF-1. The protocol: Binding Assays. […] Detection of the receptor ligand interaction was measured in an amplified luminescent proximity homogeneous assay (ALPHAScreen; BioSignal-Packard, Montreal). The assay was performed in 384-well Nunc™ white polystyrene microplates (Nalge Nunc International, Naperville, Ill.) with a final volume of 40 μL. […] Each concentration of competitor was assayed in duplicate. Non-specific binding was determined in the presence of 3×10^−5 M hIGF-1. The second step of the assay was to add acceptor beads and the incubation continued for 0.5 hr. The final step was to add donor beads and the incubation continued for an additional 1 hr. […] Primary data were background corrected, normalized to buffer controls and then expressed as % Specific Binding. The data were fit to a four-parameter non-linear regression analysis (y=min+(max-min)/(1+10̂((log IC50-x)*Hillslope))), which was used to determine IC50 values. The Z′-factor for this assay is greater than 0.7 (Z′=1-(3σ++3σ−)/|μ+−μ−|) and the signal-to-background (SB) ratio was between 40 and 70.

In assay [3] the test system is SW480 cells. The assay is classed as cell-based. The protocol: (§1) For cell growth/density studies, a mitochondrial activity assay was used, as exemplified by the following. Cells (SW480, MCF-7S8) were propagated in complete medium (DME: F12, 10% FCS (SW 480) or 5% FCS (MCF-7S8, P/S)), trypsinized, and seeded in 96 well plates as 10,000 cells/well in medium with 0.5% FCS. All wells in the periphery were omitted and only filled with medium. […] All treatments are made in triplicates. […] Treatment was continued for 48 hours (SW480 cells) or 72 hours (MCF-7S8 cells) before quantification of the cell density. Media was exchanged each day. Media and peptides were diluted in DMSO. When measuring cell density, the volume of each well was adjusted to […] Pre-diluted WST-1 (1 ml+1.5 ml DME:F12) was added as 25 μL to each well including background samples. Three wells with media only served as background controls. The cells were incubated for 90 min protected against light in an incubator.

Assay [4] deals with MCF-7S8 cells (Homo sapiens, UniProt P08069). Put plainly: cell growth/density, mitochondrial activity assay (WST-1), MCF-7S8. The assay is classed as cell-based. To be noted: one experiment only. The protocol:
as §1

Assay [5] concerns MiaPaCa cells. Nature of the assay: cell assay (WST-1), antagonism of IGF-1, MiaPaCa. The assay is classed as cell-based, human. To be noted: 5×10^−8 M IGF-1; 72 h; FIG. 10C. The protocol: (§2) Cell Assays. MCF7 or MiaPaCa cells were plated in 96 well plates at a concentration of 3×10^3 cells/well in 75 μL of serum-free RPMI-1640 and incubated overnight at 37° C. Dilutions of the peptides were prepared in a separate working plate and 75 μL added to the cells. […] Plates were incubated for 48-72 hours at 37° C. Viability was measured by the addition of 10 μL WST-1/well (Roche) as per the manufacturer's instructions.

Assay [6] addresses T1, MCF7 cells. Put plainly: cell assay (WST-1), antagonism of IGF-1, MCF7. The assay is classed as cell-based. Conditions: 5×10^−8 M IGF-1; 72 h; FIG. 10B. The protocol:
as §2
The cells were treated as described in the materials and methods section. […] The data are presented as percent inhibition and to determine binding kinetic parameters data were fit to a four-parameter logistic equation.
In general terms: Tetrazolium assays rely on reduction of a dye to a coloured formazan, in cell work by metabolically active cells.

In assay [7] the test system is IRS-1. Put plainly: IRS-1 phosphorylation in MCF7 cells (immunoprecipitation, Western blot). The assay is classed as cell-based, human. To be noted: 0.5 nM IGF-1, 10 minutes, peptides 30 μM. The protocol:
Preparation of whole-cell lysates, immunoprecipitation, and Western blot analysis. For qualitative IRS-1 phosphorylation analysis, MCF7 cells in monolayer cultures (about 80% of confluency) were used. […] After treatment, cells were rinsed twice with ice-cold PBS containing 0.2 mM PMSF and 1 mM Na3VO4 (all from SIGMA). Cells were scraped into the same buffer and pelleted by centrifugation at 200 g for 3 min. […] Cell lysates were cleared by centrifugation for 5 min at 14 000 g and the resulting supernatant was snap-frozen in EtOH-dry ice and stored at −80° C. The protein concentration was determined using the Dc Protein Assay Kit (Bio-Rad Laboratories).
Immunoprecipitations were performed with pre-cleared lysates for 4 hours at […] using 0.3-0.5 mg of total protein with 1 μg of polyclonal anti-IRS-1 antibody (Upstate Biotechnology), and 25 μL of Protein A/agarose slurry (SIGMA). Agarose beads with immobilized proteins were washed 3 times with IP wash buffer (50 mM Tris pH 7.5 (GibcoBRL), 150 mM NaCl, 1 mM Na3VO4, 0.2 mM PMSF). […]
Immunoprecipitates were subjected to SDS-PAGE on 4-15% Tris-HCl Ready Gels and transferred to Trans-Blot Transfer Medium nitrocellulose membranes (both from Bio-Rad Laboratories). […] Blots were exposed to an enhanced […] substrate (ECL Western Blotting Analysis System, Amersham Pharmacia Biotech). […]
In general terms: A western blot detects proteins with antibodies after separation by electrophoresis.

Assay [8] has as its system IGF-IR. Put plainly: downstream signaling in L6 cells: IGF-IR. The assay is classed as cell-based. Conditions: 3 nM IGF-1, read-out: IGF-IR, IC50 for down regulation of the stimulation to the basal level. The protocol: (§3) The tyrosine phosphorylation of IRS signaling (the 180 kDa band on a tyrosine phosphor Western blot) as well as activation of effectors MAPK 44 and 42 and PKB were analyzed by using antibodies specific for their active forms using methods substantially similar to those described in Example 14 of the '246 PCT application.
(§4) The effect of select peptides on downstream signaling (MAPK44, MAPK42, PKB/Akt, IRS-1, and IGF-1R) was also measured by studying the signaling in L6 cells predominantly expressing IGF-1R and very limited insulin receptors. […] The antagonistic effect of the peptides can be seen to affect all the downstream signaling from the IGF-1R.

Assay [9] concerns SGBS adipocytes transfected with HIR-encoding DNA. Nature of the assay: 3H glucose incorporation (insulin agonist activity) in SGBS adipocytes. The assay is classed as cell-based. The protocol:
Insulin increases uptake of ^3H glucose into adipocytes and its conversion into lipid. Incorporation of ^3H into the lipid phase was determined by partitioning of lipid phase into a scintillant mixture, which excludes water-soluble ^3H products. […] The results are expressed as increase relative to full insulin response.

For assay [10], the system named is insulin receptor/IGF-1R. Nature of the assay: tyrosine phosphorylation of insulin receptor/IGF-1R in L6-hIR cells (Western blot). The assay is classed as cell-based.
Assay [11] concerns IRS-1. Put plainly: downstream signaling: IRS-1 tyrosine phosphorylation. The assay is classed as cell-based. The protocol:
as §3, §4

For assay [12], the target named is T3, IGF-1R on L6 (with mainly symmetric IGF-1R) (Rattus norvegicus, UniProt P24062).
T3 construct: L6 cells predominantly expressing IGF-1R and very limited insulin receptors; endogenous in cells; host or cells: L6 cells
T3 sequence (P24062 31-737 limits assumed): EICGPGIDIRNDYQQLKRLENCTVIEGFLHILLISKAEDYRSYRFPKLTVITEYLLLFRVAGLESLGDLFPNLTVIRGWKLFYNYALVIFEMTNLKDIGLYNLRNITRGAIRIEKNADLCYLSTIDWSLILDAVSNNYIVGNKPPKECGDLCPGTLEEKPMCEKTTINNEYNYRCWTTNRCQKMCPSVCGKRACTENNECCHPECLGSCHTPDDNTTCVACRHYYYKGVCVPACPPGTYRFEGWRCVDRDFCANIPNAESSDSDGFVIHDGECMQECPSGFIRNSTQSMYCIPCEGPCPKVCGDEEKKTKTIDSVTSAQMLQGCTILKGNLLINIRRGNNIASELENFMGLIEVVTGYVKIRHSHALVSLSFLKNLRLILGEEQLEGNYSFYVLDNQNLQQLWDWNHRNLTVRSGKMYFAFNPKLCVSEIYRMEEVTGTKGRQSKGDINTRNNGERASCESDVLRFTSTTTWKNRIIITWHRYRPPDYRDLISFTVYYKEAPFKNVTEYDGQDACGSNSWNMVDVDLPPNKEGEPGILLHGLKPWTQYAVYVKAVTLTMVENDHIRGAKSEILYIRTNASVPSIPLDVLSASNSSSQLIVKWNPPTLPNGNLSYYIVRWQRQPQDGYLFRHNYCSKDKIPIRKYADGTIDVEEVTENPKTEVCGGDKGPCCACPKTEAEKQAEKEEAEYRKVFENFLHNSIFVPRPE
T3 sequence (P24062 742-1370 limits assumed): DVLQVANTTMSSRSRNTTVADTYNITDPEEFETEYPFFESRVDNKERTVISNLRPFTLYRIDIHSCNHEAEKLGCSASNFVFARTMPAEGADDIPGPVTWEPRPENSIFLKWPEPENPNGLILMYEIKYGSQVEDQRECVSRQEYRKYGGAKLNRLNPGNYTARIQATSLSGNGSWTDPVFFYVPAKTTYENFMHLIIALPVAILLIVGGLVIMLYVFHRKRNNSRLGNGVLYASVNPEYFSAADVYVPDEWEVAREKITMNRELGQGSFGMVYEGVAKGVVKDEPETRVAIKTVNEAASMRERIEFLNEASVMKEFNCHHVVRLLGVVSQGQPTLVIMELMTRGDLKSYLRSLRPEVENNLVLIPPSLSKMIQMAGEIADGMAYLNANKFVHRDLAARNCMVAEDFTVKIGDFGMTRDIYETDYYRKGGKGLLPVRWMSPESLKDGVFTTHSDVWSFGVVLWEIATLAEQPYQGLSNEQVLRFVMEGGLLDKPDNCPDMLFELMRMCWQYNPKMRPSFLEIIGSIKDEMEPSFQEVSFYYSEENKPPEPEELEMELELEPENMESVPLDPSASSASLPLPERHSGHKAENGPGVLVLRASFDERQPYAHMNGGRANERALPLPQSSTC
Nature of the assay: displacement of IGF-1 binding on L6 cells.

Assay [13] has as its system L6 hIR (with mainly hybrid IGF-1R/IR). Nature of the assay: displacement of IGF-1 binding on L6 hIR cells.
Assay [14] relates to PKB/Akt. Put plainly: downstream signaling in L6 cells: PKB/Akt. The assay is classed as cell-based. To be noted: 3 nM IGF-1, read-out: PKB/Akt, IC50 for down regulation of the stimulation to the basal level. The protocol: as §3, §4
Assay [15] has as its system IGF-1R, IRS-1, MAPK42/44 and PKB/Akt. Nature of the assay: IGF-1 induced phosphorylation (IGF-1R, IRS-1, MAPK42/44, PKB/Akt) in L6 and L6 hIR cells, summary in description. The assay is classed as cell-based. To be noted: read-out: phosphorylation of IGF-1R and MAPK42/44 in response to IGF-1 treatment, IC50. The protocol:
The activation of HIR or HIGF-1R in adipocytes was measured by stimulating the cells and studying the level of tyrosine phosphorylation (Western blot) of the insulin receptor/IGF-1R. […] The IGF-1R will be present in symmetric homodimer complex as well as in the heterodimer with half insulin receptor.
as §3, §4

Assay [16] deals with MAPK44. Nature of the assay: downstream signaling in L6 cells: MAPK44. The assay is classed as cell-based. Conditions: 3 nM IGF-1, read-out: MAPK44, IC50 for down regulation of the stimulation to the basal level. The protocol:
as §3, §4

Assay [17] deals with MAPK42. Nature of the assay: downstream signaling in L6 cells: MAPK42. The assay is classed as cell-based. To be noted: 3 nM IGF-1, read-out: MAPK42, IC50 for down regulation of the stimulation to the basal level. The protocol:
as §3, §4

[18] abbreviates: read-out: IC50 in SW480 (M) in presence of IGF-1/alone: in presence of IGF-1, first value of the cell: concentration needed to blunt the effect of 10 nM IGF-1, cells in words only = effect as reported, 48 hours.

T1 sequence (P08069 31-736): as the sequence (P08069 31-736 limits assumed) above
Chain of MCF-7S8 cells (P08069 31-736): as the sequence (P08069 31-736 limits assumed) above
Chain of L6 hIR (with mainly hybrid IGF-1R/IR) (P24062 31-737 limits assumed): as the sequence (P24062 31-737 limits assumed) above
Chain of L6 hIR (with mainly hybrid IGF-1R/IR) (P24062 742-1370 limits assumed): as the sequence (P24062 742-1370 limits assumed) above

Consider `CC(C)C[C@H](NC(=O)[C@H](CS)NC(=O)[C@H](CO)NC(=O)[C@H](Cc1ccc(O)cc1)NC(=O)[C@H](Cc1ccccc1)NC(=O)[C@@H](N)[C@@H](C)O)C(=O)N[C@@H](C)C(=O)N[C@@H](CO)C(=O)N[C@@H](CC(C)C)C(=O)N[C@@H](CC(C)C)C(=O)N[C@H](C(=O)NCC(=O)N[C@H](C(=O)N1CCC[C@H]1C(=O)N[C@@H](CCC(N)=O)C(=O)N1CCC[C@H]1C(=O)N[C@@H](CC(N)=O)C(=O)N[C@@H](CCCNC(=N)N)C(=O)NCC(=O)N1CCC[C@H]1C(=O)N[C@@H](Cc1c[nH]c2ccccc12)C(=O)N[C@@H](CCC(=O)O)C(=O)N[C@@H](CCCNC(=N)N)C(=O)N[C@@H](CS)C(=O)N[C@@H](CCCNC(=N)N)C(=O)O)[C@@H](C)O)[C@@H](C)O` [RP6] (H-TFYSCLASLLTGTPQPNRGPWERCR-OH), for which the IC50 is 9000 nM in assay [1] and 2700 nM in [2].
As for “ESYGDCRDRPCGDAPNFYDWFVQQASE [Peptide F270]”, the “IC50 in SW480 (M) in presence of IGF-1/alone: in presence of IGF-1” value in assay [3] (first value of the cell: concentration needed to blunt the effect of 10 nM IGF-1, cells in words only = effect as reported, 48 hours) is “agonistic?”. Also, the IC50 in assay [3] (setting [18]) is 2e-06 M. In assay [4], the “effect on MCF-7” value was “agonistic effects”.
With “SFYSCLESLVNGPAEKSRGQWDGCRK [Peptide F250]”, the “antagonism of IGF-1 activity in MiaPaCa cells” value in [5] is listed as “antagonism of IGF-1 activity in MiaPaCa cells”. The IC50 in assay [3] (setting [18]) is 2e-06 M and 1e-06 M. Moreover, the “antagonism of IGF-1 activity in MCF-7 cells” value in assay [6] was “antagonism of IGF-1 activity in MCF-7 cells”. The “competition of IGF-1 binding” value in assay [2] (FIG. 10A) is given as “competes IGF-1 binding”. In addition, the “IGF-1-induced phosphorylation of IRS-1” value in assay [7] is recorded as “inhibited”.
For “SFYSCLESLVQGPAEKSRGQWEGCRK [Peptide F293]”, the IC50 is 500 nM in assay [8]; > 1000 nM in assay [11] (L6 cells, 3 nM IGF-1, read-out: IRS-1, IC50 for down regulation of the stimulation to the basal level); > 1000 nM in assay [14]; 500 nM in assay [15]; 1e-07 M in assay [3] (read-out: IC50 in SW480 (M) in presence of IGF-1/alone: alone, second value of the cell: concentration needed to inhibit basal level in 0.5% FCS); 500 nM in assay [16]. The IC50 in [17] is 1000 nM. Besides, the “effect on glucose uptake induced by insulin or IGF-1” value in assay [9] (SGBS adipocytes, FIGS. 1A and 1B) is “neither peptide F138 nor peptide F293 has any substantial effect on glucose uptake induced by insulin or IGF-1”. Also, the “doses not affecting glucose uptake in response to insulin/IGF-1” value in [9] (SGBS cells) is < 5 µM. For the same molecule, the “inhibition of IGF-1 induced versus insulin induced phosphorylation” value in assay [10] was “more effective on IGF-1 induced phosphorylation as compared to insulin induced phosphorylation”. Moreover, the “effect on insulin stimulated tyrosine phosphorylation” value in assay [10] (2 μM peptide, 10 min) is listed as “marginal effect”. The “effect on tyrosine phosphorylation by IGF-1” value in assay [10] (2 μM peptide, 10 min) is “inhibited”. In addition, the “effect on IGF-1 stimulated IRS-1 phosphorylation” value in [11] (FIG. 4, 10 min) was “clearly inhibits the IGF-1 stimulated IRS-1 phosphorylation”. For the same molecule, the “concentration displacing IGF-1 binding to IGF-1R on L6” value in assay [12] turned out to be 150 nM. Also, in [13], the “concentration displacing IGF-1 binding in L6 hIR” value worked out at 150 nM. For the same molecule, in [3] (without IGF-1), the “inhibition of basal growth of SW480, doses” value was “inhibition of basal growth was observed”.
